These are literature values, as cited in PubChem BioAssay AID1259409 (Chemical Carcinogenesis Research Information System (CCRIS), 2018).

The subject of this data set is rodent chemically induced tumor inhibition, incidence and multiplicity. Nature of the data set: CCRIS tumor inhibitor studies.

Take `C=C(C)[C@H]1Cc2c(ccc3c2O[C@@H]2COc4cc(OC)c(OC)cc4[C@@H]2C3=O)O1`: the “tumour outcome (control, treated, inhibition, significance)” value is 9/15 (60%), 6/19 (32%), 47%, not significant (Carcinogen: AZOXYMETHANE (25843-45-2), Dose [Inhibitor]: 0, 500 PPM IN DIET FOR 4 WK, BEGINNING 1 WK BEFORE THE FIRST CARCINOGEN DOSE (STUDY DURATION: 38 WK), Route [Inhibitor]: ORAL, Species: RAT, Strain/Sex: F344/MALE, Target Tissue: Type of Lesion: LARGE INTESTINE: ADENOCARCINOMA, Dose [Carcinogen]: 15 MG/KG BW 1 INJECTION/WK FOR 3 WK, Promoter: NONE USED); 4/15 (27%), 2/19 (11%), 59%, not significant (Carcinogen: AZOXYMETHANE (25843-45-2), Dose [Inhibitor]: 0, 500 PPM IN DIET FOR 4 WK, BEGINNING 1 WK BEFORE THE FIRST CARCINOGEN DOSE (STUDY DURATION: 38 WK), Route [Inhibitor]: ORAL, Species: RAT, Strain/Sex: F344/MALE, Target Tissue: Type of Lesion: LARGE INTESTINE: ADENOMA, Dose [Carcinogen]: 15 MG/KG BW 1 INJECTION/WK FOR 3 WK, Promoter: NONE USED); 4/15 (27%), 1/19 (5%), 81%, not significant (Carcinogen: AZOXYMETHANE (25843-45-2), Dose [Inhibitor]: 0, 500 PPM IN DIET FOR 4 WK, BEGINNING 1 WK BEFORE THE FIRST CARCINOGEN DOSE (STUDY DURATION: 38 WK), Route [Inhibitor]: ORAL, Species: RAT, Strain/Sex: F344/MALE, Target Tissue: Type of Lesion: SMALL INTESTINE: ADENOCARCINOMA, Dose [Carcinogen]: 15 MG/KG BW 1 INJECTION/WK FOR 3 WK, Promoter: NONE USED); 1/15 (7%), 0/19 (0%), 100%, not significant (Carcinogen: AZOXYMETHANE (25843-45-2), Dose [Inhibitor]: 0, 500 PPM IN DIET FOR 4 WK, BEGINNING 1 WK BEFORE THE FIRST CARCINOGEN DOSE (STUDY DURATION: 38 WK), Route [Inhibitor]: ORAL, Species: RAT, Strain/Sex: F344/MALE, Target Tissue: Type of Lesion: SMALL INTESTINE: ADENOMA, Dose [Carcinogen]: 15 MG/KG BW 1 INJECTION/WK FOR 3 WK, Promoter: NONE USED); 9/15 (60%), 3/16 (19%), 68%, p= 0.0226 (Carcinogen: AZOXYMETHANE (25843-45-2), Dose [Inhibitor]: 0, 500 PPM IN DIET FOR 34 WK, BEGINNING 1 WK AFTER THE LAST CARCINOGEN DOSE (STUDY DURATION: 38 WK), Route [Inhibitor]: ORAL, Species: RAT, Strain/Sex: F344/MALE, Target Tissue: Type of Lesion: LARGE INTESTINE: ADENOCARCINOMA, Dose [Carcinogen]: 15 MG/KG BW 1 INJECTION/WK FOR 3 WK, Promoter: NONE USED); 4/15 (27%), 1/16 (6%), 78%, not significant (Carcinogen: AZOXYMETHANE (25843-45-2), Dose [Inhibitor]: 0, 500 PPM IN DIET FOR 34 WK, BEGINNING 1 WK AFTER THE LAST CARCINOGEN DOSE (STUDY DURATION: 38 WK), Route [Inhibitor]: ORAL, Species: RAT, Strain/Sex: F344/MALE, Target Tissue: Type of Lesion: LARGE INTESTINE: ADENOMA, Dose [Carcinogen]: 15 MG/KG BW 1 INJECTION/WK FOR 3 WK, Promoter: NONE USED). In addition, the “tumour outcome (control, treated, inhibition, significance)” value is 4/15 (27%), 1/16 (6%), 78%, not significant (Carcinogen: AZOXYMETHANE (25843-45-2), Dose [Inhibitor]: 0, 500 PPM IN DIET FOR 34 WK, BEGINNING 1 WK AFTER THE LAST CARCINOGEN DOSE (STUDY DURATION: 38 WK), Route [Inhibitor]: ORAL, Species: RAT, Strain/Sex: F344/MALE, Target Tissue: Type of Lesion: SMALL INTESTINE: ADENOCARCINOMA, Dose [Carcinogen]: 15 MG/KG BW 1 INJECTION/WK FOR 3 WK, Promoter: NONE USED) and 1/15 (7%), 0/16 (0%), 100%, not significant (Carcinogen: AZOXYMETHANE (25843-45-2), Dose [Inhibitor]: 0, 500 PPM IN DIET FOR 34 WK, BEGINNING 1 WK AFTER THE LAST CARCINOGEN DOSE (STUDY DURATION: 38 WK), Route [Inhibitor]: ORAL, Species: RAT, Strain/Sex: F344/MALE, Target Tissue: Type of Lesion: SMALL INTESTINE: ADENOMA, Dose [Carcinogen]: 15 MG/KG BW 1 INJECTION/WK FOR 3 WK, Promoter: NONE USED). Moreover, the outcome (Carcinogen: DIETHYLNITROSAMINE, Dose [Inhibitor]: 0, 0.005, 0.5, 500 PPM FOR 11 OR 43 WK BEGINNING 1 WK AFTER CARCINOGEN (STUDY DURATION: 45 WK), Dose [Inhibitor]: 0, 0.005, 0.5, 500 PPM FOR 11 OR 43 WK BEGINNING 1 WK AFTER CARCINOGEN (STUDY DURATION: 45 WK), Route [Inhibitor]: DIET, Species: RAT, Strain/Sex: F344/MALE, Target Tissue: Type of Lesion: LIVER: HEPATOCELLULAR CARCINOMA, HEPATOCELLULAR ADENOMA, Dose [Carcinogen]: 100 MG/KG BW TWICE AT 1 WK INTERVALS (STUDY DURATION: 45 WK)) is on record as 60; 35; 65; 100: 55; 65; 50; 100.
Regarding `N#C[SeH]`, the “tumour outcome (control, treated, inhibition, significance)” value is listed as 88%, 68%, 23%, not significant (Carcinogen: 7,12-DIMETHYLBENZ[A]ANTHRACENE, 57-97-6, Dose [Inhibitor]: 0, 2 PPM (AS SELENIUM) IN DIET BEGINNING 2 WK PRIOR TO CARCINOGEN DOSE AND CONTINUING FOR DURATION OF STUDY (STUDY DURAT, Route [Inhibitor]: ORAL, Species: RAT, Strain/Sex: SPRAGUE-DAWLEY/FEMALE, Target Tissue: Type of Lesion: MAMMARY GLAND: ADENOCARCINOMA, Dose [Carcinogen]: 10 MG ONCE AT 55 D OF AGE, Promoter: NONE USED) and 88%, 44%, 50%, p<0.05 (Carcinogen: 7,12-DIMETHYLBENZ[A]ANTHRACENE, 57-97-6, Dose [Inhibitor]: 0, 3 PPM (AS SELENIUM) IN DIET BEGINNING 2 WK PRIOR TO CARCINOGEN DOSE AND CONTINUING FOR DURATION OF STUDY (STUDY DURAT, Route [Inhibitor]: ORAL, Species: RAT, Strain/Sex: SPRAGUE-DAWLEY/FEMALE, Target Tissue: Type of Lesion: MAMMARY GLAND: ADENOCARCINOMA, Dose [Carcinogen]: 10 MG ONCE AT 55 D OF AGE, Promoter: NONE USED).
Consider `C=C(C)C1CC=C(C)C(O)C1` (stereo not drawn), for which the “tumour outcome (control, treated, inhibition, significance)” value (Carcinogen: 7,12-DIMETHYLBENZ[A]ANTHRACENE, 57-97-6, Dose [Inhibitor]: 0, 1% IN DIET FOR 3 WK BEGINNING 2 WK PRIOR TO CARCINOGEN DOSE (STUDY DURATION: 20 WK), Route [Inhibitor]: ORAL, Species: RAT, Strain/Sex: WISTAR/FEMALE, Target Tissue: Type of Lesion: MAMMARY GLAND: CARCINOMA, Dose [Carcinogen]: 50 MG/KG IN SESAME OIL ONCE, Promoter: NONE USED) is recorded as 98%, 92%, 6%, not significant.
In the case of `NCC[Se][Se]CCN`, the “tumour outcome (control, treated, inhibition, significance)” value runs as follows: (Carcinogen: 7,12-DIMETHYLBENZ[A]ANTHRACENE, 57-97-6, Dose [Inhibitor]: 0, 0.000025 MOL/KG DIET BEGINNING 2 WK PRIOR TO CARCINOGEN AND CONTINUED FOR STUDY DURATION (STUDY DURATION: 25 WK), Route [Inhibitor]: ORAL, Species: RAT, Strain/Sex: CD-1/FEMALE, Target Tissue: Type of Lesion: MAMMARY GLAND: ADENOCARCINOMA, Dose [Carcinogen]: 10 MG ONCE, Promoter: NONE USED) 18/25 (72%), 14/25 (56%), 22%, not significant; (Carcinogen: 7,12-DIMETHYLBENZ[A]ANTHRACENE, 57-97-6, Dose [Inhibitor]: 0, 0.00004 MOL/KG DIET BEGINNING 2 WK PRIOR TO CARCINOGEN AND CONTINUED FOR STUDY DURATION (STUDY DURATION: 25 WK), Route [Inhibitor]: ORAL, Species: RAT, Strain/Sex: CD-1/FEMALE, Target Tissue: Type of Lesion: MAMMARY GLAND: ADENOCARCINOMA, Dose [Carcinogen]: 10 MG ONCE, Promoter: NONE USED) 18/25 (72%), 11/25 (44%), 39%, p<0.05.
As for `CS(=O)(=O)c1ccc(C2=C(c3ccccc3)C(=O)OC2)cc1`, the “tumour outcome (control, treated, inhibition, significance)” value reads like this: (Carcinogen: N-METHYL-N-NITROSOUREA, 684-93-5, Dose [Inhibitor]: 0.001% IN DIET, BEGINNING 7 D BEFORE FIRST CARCINOGEN DOSE FOR 19 WK (STUDY DURATION: 19 WK), Route [Inhibitor]: ORAL, Species: RAT, Strain/Sex: SPRAGUE-DAWLEY/FEMALE, Target Tissue: Type of Lesion: MAMMARY GLAND: TUMOR, Dose [Carcinogen]: 50 MG/KG 1 WK FOR 2 WK) 16/23 (69.6%), 10/24 (41.7%), 40%, not significant; (Carcinogen: N-METHYL-N-NITROSOUREA, 684-93-5, Dose [Inhibitor]: 0.005% IN DIET, BEGINNING 7 D BEFORE FIRST CARCINOGEN DOSE FOR 19 WK (STUDY DURATION: 19 WK), Route [Inhibitor]: ORAL, Species: RAT, Strain/Sex: SPRAGUE-DAWLEY/FEMALE, Target Tissue: Type of Lesion: MAMMARY GLAND: TUMOR, Dose [Carcinogen]: 50 MG/KG 1 WK FOR 2 WK) 16/23 (69.6%), 10/25 (40%), 42.5%, p< 0.05.
For the compound `CCC(=O)Oc1ccc2c(c1)CC[C@@H]1[C@@H]2CC[C@]2(C)[C@@H](OC(=O)CC)CC[C@@H]12`, the “tumour outcome (control, treated, inhibition, significance)” value runs as follows: (Carcinogen: 1,2-DIMETHYLHYDRAZINE, 540-73-8, Dose [Inhibitor]: 0, 0.1 ML OF A SOLUTION IN OLIVE OIL 1/WK FOR 30 WK ADMINISTERED 1 DAY PRIOR TO EACH CARCINOGEN DOSE AND CONTINUING FOR, Route [Inhibitor]: SUBCUTANEOUS, Species: MOUSE, Strain/Sex: C3H/FEMALE, Target Tissue: Type of Lesion: CLITORAL GLAND: TUMORS, Dose [Carcinogen]: 8 MG/KG BW 1/WK FOR 20 WK, Promoter: NONE USED) 23/36 (64%), 7/37 (19%), 70%, p=0.026; (Carcinogen: 7,12-DIMETHYLBENZ[A]ANTHRACENE, 57-97-6, Dose [Inhibitor]: 0, 1 MG/100 G BW 1/WK FOR 150 D BEGINNING POST CARCINOGEN TREATMENT (STUDY DURATION: 150 D), Route [Inhibitor]: SUBCUTANEOUS, Species: RAT, Strain/Sex: WISTAR/FEMALE, Target Tissue: Type of Lesion: MAMMARY GLAND: ADENOCARCINOMA, Dose [Carcinogen]: 4 MG IN 0.1 ML OF SESAME OIL INJECTED ONCE INTO THE EXPOSED MAMMARY TISSUE OF HYPERPROLACTINEMIC RATS ON DAY 73 OF AGE, Promoter: NONE USED) 8/11 (73%), 1/7 (14%), 81%, p<0.05.
